Among the data in PubChem BioAssay (NCI) are GI50 and TGI values, retold here.

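96-well plates; 48 h exposure; 5 concentrations. Endpoints by linear interpolation between flanking doses. Not reached: highest tested concentration assigned. GI50 = concentration required for 50% inhibition of growth. The concentration for full growth arrest is given as TGI.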 Some results are limits rather than exact numbers.

Some test systems named below: DU-145 prostate; TK-10 renal; HOP-92 NSCLC; OVCAR-5 ovarian; MALME-3M melanoma; SK-OV-3 ovarian; RXF 393 renal; MOLT-4 leukemia; HT29 colon; IGROV1 ovarian.
Experiment in all cases: NCI-60 cell line screen, 48 h

Turning to `COc1ccc(-c2ccc(-c3ccc(C(=N)N)nc3)s2)cc1`, the GI50 is 1.77 µM in the assay on DU-145 prostate; 1.89 µM in the assay on TK-10 renal; 1.5 µM in the assay with HOP-92 NSCLC; 1.67 µM with OVCAR-5 ovarian; 1.84 µM in the assay on MALME-3M melanoma; 1.7 µM in the assay with SK-OV-3 ovarian. The GI50 in the assay with RXF 393 renal was 1.77 µM. The TGI amounted to 3.17 µM in the assay with DU-145 prostate; 3.54 µM in the assay with TK-10 renal; 3.07 µM in the assay on HOP-92 NSCLC; 3.11 µM in the assay on OVCAR-5 ovarian; 3.44 µM in the assay with MALME-3M melanoma; 3.23 µM in the assay with SK-OV-3 ovarian. For the same molecule, the TGI in the assay on RXF 393 renal is 3.34 µM.
As to `COc1ccc2c(c1)CC[C@@H]1[C@@H]2CC[C@]2(C)C(=O)C3(CCCCC3)C[C@@H]12`, the GI50 with DU-145 prostate is more than 100 µM; in the assay with TK-10 renal, more than 100 µM; in the assay with HOP-92 NSCLC, more than 100 µM; in the assay on MOLT-4 leukemia it was more than 100 µM; with MALME-3M melanoma, more than 100 µM; in the assay with HT29 colon it was 79.5 µM. Also, the GI50 in the assay on IGROV1 ovarian, in the assay with SK-OV-3 ovarian and with RXF 393 renal was more than 100 µM in each case. Further, the TGI with DU-145 prostate, with TK-10 renal, in the assay on HOP-92 NSCLC, in the assay on MOLT-4 leukemia, in the assay on MALME-3M melanoma and in the assay with HT29 colon was more than 100 µM throughout. Besides, the TGI in the assay with IGROV1 ovarian, in the assay with SK-OV-3 ovarian and in the assay on RXF 393 renal was more than 100 µM in each case.
In the case of `N#CC(C#N)=CN1CCN(C(=O)c2ccco2)C1=S`, the GI50 was 5.46 µM in the assay with DU-145 prostate; 4.62 µM with TK-10 renal; 22.4 µM in the assay with HOP-92 NSCLC; 5.22 µM in the assay with MOLT-4 leukemia; 47.8 µM with MALME-3M melanoma; 27.7 µM with HT29 colon. The GI50 with IGROV1 ovarian is 6.61 µM; in the assay on SK-OV-3 ovarian, 33.1 µM; with RXF 393 renal, 2.63 µM. Also, the TGI is more than 100 µM with DU-145 prostate; 32.7 µM in the assay with TK-10 renal; more than 100 µM in the assay on HOP-92 NSCLC; more than 100 µM in the assay with MOLT-4 leukemia; more than 100 µM in the assay on MALME-3M melanoma; more than 100 µM in the assay with HT29 colon. In addition, the TGI with IGROV1 ovarian was 38.9 µM; in the assay with SK-OV-3 ovarian it was 86.5 µM; in the assay on RXF 393 renal, 6.6 µM.
On to `O=C(O)C(=C\c1ccc2c(c1)OCO2)/C(=C/c1ccc2c(c1)OCO2)C(=O)O`, for which the TGI with DU-145 prostate, with TK-10 renal, in the assay with HOP-92 NSCLC, in the assay with OVCAR-5 ovarian, in the assay on MOLT-4 leukemia and with MALME-3M melanoma was more than 100 µM throughout. Also, the TGI with HT29 colon, in the assay on IGROV1 ovarian, in the assay on SK-OV-3 ovarian and with RXF 393 renal was more than 100 µM in each case.
Regarding `Cc1c(C#N)c2nnn(C)c(=O)n2c1-c1ccccc1`, the TGI in the assay with TK-10 renal, with HOP-92 NSCLC, in the assay on OVCAR-5 ovarian, with SK-OV-3 ovarian and in the assay on RXF 393 renal was more than 100 µM in each case.
